Measured values reported in ChEMBL document CHEMBL1125916 (1991).

Assay: In vitro cytotoxicity in BALB/c3T3 mouse embryo fibroblasts.
Settings: BALB/c3T3, read-out: LC50

## O=P1(N(CCCl)CCCl)NCCCO1 (stereo unspecified) [CYCLOPHOSPHAMIDE ANHYDROUS]
  CC50: 37.6 µM
